Measured values taken from patent US20190100534A1, “Cephem Compounds with Latent Reactive Groups” (Gladius Pharmaceuticals, Inc., priority 2017, published 2019).

Legend:
various enteric bacteria = assay: MIC determination, summary in text; format: cell-based; details: review of Tables 3-1 to 3-6
Procedure: (§1) Sterile technique was used throughout these experiments. Suspensions of organisms were removed from storage (−80° C.) and partially thawed. Partially thawed organisms (1 μL) were inoculated into 3 mL sterile LB Broth in a sterile culture tube and capped, then cultured at 37° C. with shaking for 4-5 hours until the optical density at 600 nm (OD600) was greater than 0.1 on a single beam spectrophotometer.
(§2) The concentration of organisms was adjusted to 0.08-0.1 OD600 (0.5 McFarland units) by dilution with sterile cation-adjusted Meuller-Hinton (CAMH) broth. The suspensions were used within 30 minutes of preparation.
(§3) A stock solution was made of each test compound by measuring 6.4 mg of the compound on an analytical balance and dissolving it in DMSO (1 mL) to get a transparent solution. The solutions were stored at −20° C. and thawed prior to use.
(§4) Sterile CAMH broth (200 μL) containing 20 μM Apo-Transferrin was pipetted into the first row of 8 columns of a sterile, round-bottomed, transparent, 96-well microplate using an 8-channel pipette equipped with sterile tips. One hundred μL was pipetted into the wells of the remaining 11 rows.
To each well of the first row was pipetted 2.0 μL of the 6.4 mg/mL stock test compound stock solution to give 1:100 dilutions and a final concentration of 64 μg/mL and mixed.
(§5) With an 8-channel pipette equipped with sterile tips, 100 μL of the first row solution was transferred to the second row and mixed. The process was repeated for the second to third rows and continued through row 11. One hundred μL from row 11 was removed and discarded so that all 12 rows contained 100 μL. Row 12 contained no compound and rows 1-11 contained 64, 32, 16, 8, 4, 2, 1, 0.5, 0.25, 0.125, […] of a given compound.
(§6) Inoculant suspensions (0.5 μL) were added to the 12 wells of each column. The plates were then covered and incubated at 37° C. overnight for 18 hours.
(§7) For each organism the MIC was determined by identifying the transparent well with the lowest test compound concentration.

CF (RR -1) = assay: MIC determination; format: cell-based, Citrobacter freundii; details: CAMH broth, 20 μM Apo-Transferrin, 37° C., 18 hours
Procedure: as §1, §2, §3, §4, §5, §6, §7

KP(ATCC SHV-18) = assay: MIC determination; format: cell-based, Klebsiella pneumoniae; details: CAMH broth, 20 μM Apo-Transferrin, 37° C., 18 hours
Method in brief: (§8)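 Broth microdilution in CAMH + 20 μM apo-transferrin; inoculum 0.5 McFarland, used within 30 min. Compound 64→0.125 μg/mL, twofold steps. 37 °C, 18 h. MIC = lowest clear-well concentration.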

ENA (URMC-1) = assay: MIC determination; format: cell-based, Enterobacter aerogenes; details: CAMH broth, 20 μM Apo-Transferrin, 37° C., 18 hours
Procedure: as §1, §2, §3, §4, §5, §6, §7

ENA (URMC-2) = assay: MIC determination; format: cell-based, Enterobacter aerogenes; details: CAMH broth, 20 μM Apo-Transferrin, 37° C., 18 hours
Procedure: as §1, §2, §3, §4, §5, §6, §7

PM (Proteus mirabilis) = assay: MIC determination; format: cell-based; details: CAMH broth, 20 μM Apo-Transferrin, 37° C., 18 hours
Method in brief: as §8

SM (Serratia marcescens) = assay: MIC determination; format: cell-based; details: CAMH broth, 20 μM Apo-Transferrin, 37° C., 18 hours
Method in brief: as §8

[1] = tested on: CF (Citrobacter freundii); assay: MIC determination; format: cell-based; details: CAMH broth, 20 μM Apo-Transferrin, 37° C., 18 hours
Method in brief: as §8

[2] = tested on: ENC (Enterobacter cloacae); assay: MIC determination; format: cell-based; details: CAMH broth, 20 μM Apo-Transferrin, 37° C., 18 hours
Method in brief: as §8

EC (URMC-1) = assay: MIC determination; format: cell-based, Escherichia coli; details: CAMH broth, 20 μM Apo-Transferrin, 37° C., 18 hours
Procedure: as §1, §2, §3, §4, §5, §6, §7

EC(KB1 CTX-M-15) = assay: MIC determination; format: cell-based, Escherichia coli; details: CAMH broth, 20 μM Apo-Transferrin, 37° C., 18 hours
Procedure: as §1, §2, §3, §4, §5, §6, §7

EC (RR -1) = assay: MIC determination; format: cell-based, Escherichia coli; details: CAMH broth, 20 μM Apo-Transferrin, 37° C., 18 hours
Procedure: as §1, §2, §3, §4, §5, §6, §7

EC (RR -2) = assay: MIC determination; format: cell-based, Escherichia coli; details: CAMH broth, 20 μM Apo-Transferrin, 37° C., 18 hours
Procedure: as §1, §2, §3, §4, §5, §6, §7

EC(JMI OXA-48) = assay: MIC determination; format: cell-based, Escherichia coli; details: CAMH broth, 20 μM Apo-Transferrin, 37° C., 18 hours
Procedure: as §1, §2, §3, §4, §5, §6, §7

EC(KB2 CTX-M-14) = assay: MIC determination; format: cell-based, Escherichia coli; details: EC(KB2 CTX-M-14); CAMH broth, 20 μM Apo-Transferrin, 37° C., 18 hours
Procedure: as §1, §2, §3, §4, §5, §6, §7

EC(KB1 CTX-M-14) = assay: MIC determination; format: cell-based, Escherichia coli; details: EC(KB1 CTX-M-14); CAMH broth, 20 μM Apo-Transferrin, 37° C., 18 hours
Procedure: as §1, §2, §3, §4, §5, §6, §7

EC(KB2 CTX-M-15) = assay: MIC determination; format: cell-based, Escherichia coli; details: CAMH broth, 20 μM Apo-Transferrin, 37° C., 18 hours
Procedure: as §1, §2, §3, §4, §5, §6, §7

EC (URMC-3) = assay: MIC determination; format: cell-based, Escherichia coli; details: CAMH broth, 20 μM Apo-Transferrin, 37° C., 18 hours
Procedure: as §1, §2, §3, §4, §5, §6, §7

EC(ATCC NDM-1) = assay: MIC determination; format: cell-based, Escherichia coli; details: CAMH broth, 20 μM Apo-Transferrin, 37° C., 18 hours
Procedure: as §1, §2, §3, §4, §5, §6, §7

EC (URMC-2) = assay: MIC determination; format: cell-based, Escherichia coli; details: CAMH broth, 20 μM Apo-Transferrin, 37° C., 18 hours
Procedure: as §1, §2, §3, §4, §5, §6, §7

[3] = tested on: various Pseudomonas strains; assay: MIC determination, summary in text; format: cell-based, Pseudomonas aeruginosa; details: review of Tables 1-1 and 1-2
Procedure: as §1, §2, §3, §4, §5, §6, §7

PM (RR -1) = assay: MIC determination; format: cell-based, Proteus mirabilis; details: CAMH broth, 20 μM Apo-Transferrin, 37° C., 18 hours
Procedure: as §1, §2, §3, §4, §5, §6, §7

ENC (ATCC NDM-1) = assay: MIC determination; format: cell-based, Enterobacter cloacae; details: CAMH broth, 20 μM Apo-Transferrin, 37° C., 18 hours
Procedure: as §1, §2, §3, §4, §5, §6, §7

CC(C)(O/N=C(\C(=O)N[C@@H]1C(=O)N2C(C(=O)O)=C(C=Cc3ccc(C[n+]4ccc5cc(O)c(O)cc5c4)cc3)CS[C@H]12)c1csc(N)n1)C(=O)O (mixture of isomers) [Compound 435, 2-(4-((E/Z)-2-((6R,7R)-7-((Z)-2-(2-aminothiazol-4-yl)-2-(((2-carboxypropan-2-yl)oxy)imino)acetamido)-2-carboxy-8-oxo-5-thia-1-azabicyclo[4.2.0]oct-2-en-3-yl)vinyl)benzyl)-6,7-dihydroxyisoquinolin-2-ium]
MICs for various enteric bacteria, in words (various enteric bacteria): low microgram/mL MICs
Mimimum Inhibitory Concentrations, CF (RR -1) (CF (RR -1)): ≤0.06 microgram/mL
Minimum Inhibitory Concentrations, KP(ATCC SHV-18) (KP(ATCC SHV-18)): 0.25 microgram/mL
Minimum Inhibitory Concentrations, ENA (URMC-1) (ENA (URMC-1)): 0.13 microgram/mL
Minimum Inhibitory Concentrations, ENA (URMC-2) (ENA (URMC-2)): 0.13 microgram/mL
Minimum Inhibitory Concentrations, PM (PM (Proteus mirabilis)): ≤0.06 microgram/mL
Minimum Inhibitory Concentrations, SM (SM (Serratia marcescens)): 0.25 microgram/mL
Minimum Inhibitory Concentrations, CF [1]: ≤0.06 microgram/mL
Mimimum Inhibitory Concentrations, ENC [2]: 16 microgram/mL
Minimum Inhibitory Concentrations, EC (URMC-1) (EC (URMC-1)): ≤0.06 microgram/mL
Minimum Inhibitory Concentrations, EC(KB1 CTX-M-15) (EC(KB1 CTX-M-15)): 0.13 microgram/mL
Mimimum Inhibitory Concentrations, EC (RR -1) (EC (RR -1)): ≤0.06 microgram/mL
Mimimum Inhibitory Concentrations, EC (RR -2) (EC (RR -2)): ≤0.06 microgram/mL
Minimum Inhibitory Concentrations, EC(JMI OXA-48) (EC(JMI OXA-48)): 0.5 microgram/mL
Minimum Inhibitory Concentrations, EC(KB2 CTX-M-14) (EC(KB2 CTX-M-14)): ≤0.06 microgram/mL
Minimum Inhibitory Concentrations, EC(KB1 CTX-M-14) (EC(KB1 CTX-M-14)): ≤0.06 microgram/mL
Minimum Inhibitory Concentrations, EC(KB2 CTX-M-15) (EC(KB2 CTX-M-15)): 0.5 microgram/mL
Minimum Inhibitory Concentrations, EC (URMC-3) (EC (URMC-3)): 0.5 microgram/mL
Minimum Inhibitory Concentrations, EC(ATCC NDM-1) (EC(ATCC NDM-1)): >64 microgram/mL
Minimum Inhibitory Concentrations, EC (URMC-2) (EC (URMC-2)): ≤0.06 microgram/mL
MICs for various Pseudomonas strains, in words [3]: low microgram/mL MICs
Mimimum Inhibitory Concentrations, PM (RR -1) (PM (RR -1)): ≤0.06 microgram/mL
Mimimum Inhibitory Concentrations, ENC (ATCC NDM-1) (ENC (ATCC NDM-1)): >64 microgram/mL
